Laboratory results published in patent publication US11415579B2, “Assay for measuring a rate of reaction between a target and a ligand candidate” (Imperial College Innovations Ltd., priority 2016, dated 2022).

Assays:
[1] = Kinetic thiol consumption assay with model thiol glutathione; type: physicochemical; parameters: Rate constant with glutathione (k(GSH)): unit not given here; conditions: for Rate constant with glutathione (k(GSH)): 500 μM ligand, 5 μM thiol, phosphate buffer pH 8; for Rate constant with Glutathione: Protein: Glutathione, cysteine position NA, in h-1
Summary of the method: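 Rate constants for acrylamide reaction with 5 μM glutathione come from first-order exponential fits of normalized fluorescence decay (ex 380, em 470 nm). Reactions run in degassed phosphate buffer at pH 8 containing TCEP beads, room temperature.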

[2] = target: T1, human cyclin-dependent kinase 2 (Cdk2) (Homo sapiens, UniProt P24941); experiment: Kinetic thiol consumption assay with wild type Cdk2 (C177); type: binding; parameters: key to Rate enhancement, Cdk2 WT: k(Cdk2) divided by k(model thiol); Rate constant with Cdk2 (k(Cdk2)): unit not given here; conditions: for Rate constant with Cdk2 (k(Cdk2)): 500 μM ligand, 5 μM thiol, phosphate buffer pH 8; for Rate enhancement, Cdk2 WT: no additional mutations; for Rate constant with Cdk2 WT: Protein: Cdk2, cysteine position WT, in h^-1; for k(Cdk2)/k(Cdk2_mut) rate enhancement: model thiol Cdk2[C177A, F80C, K278C]; for k(Cdk2)/k(GSH) rate enhancement: model thiol glutathione; for hit classification, Example 2: significant rate enhancement against both model thiols (GSH and mutant Cdk2)
T1 construct: poly-histidine; made in house; host or cells: E. coli
Summary of the method: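 Rate constants came from first-order exponential decay fits of normalized fluorescence against time, with thiol (5 μM) in degassed pH 8 phosphate buffer containing 2% v/v TCEP beads and reads after 1 h at room temperature.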

Cdk2[C177A, F80C, K278C] = target: T2, Cdk2[C177A, F80C, K278C] (Homo sapiens, UniProt P24941, C177A/F80C/K278C); experiment: Kinetic thiol consumption assay with mutant Cdk2 as model thiol; type: binding; parameters: unit not given here; conditions: 500 μM ligand, 5 μM thiol, phosphate buffer pH 8
T2 construct: poly-histidine; made in house; host or cells: E. coli
Summary of the method: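 Model thiol: His-tagged human Cdk2 C177A/F80C/K278C (two engineered surface cysteines), E. coli-expressed, 5 μM in degassed phosphate buffer pH 8 with immobilized TCEP beads (2% v/v). Fluorescence (ex/em 380/470 nm) followed over time at room temperature, normalized to DMSO/thiol control. First-order decay fit gives rate constants.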

Cdk2(C177A, F80C) = target: T3, Cdk2(C177A, F80C) (Homo sapiens, UniProt P24941, C177A/F80C); experiment: Kinetic thiol consumption assay with Cdk2 mutant F80C, incl. kobs versus concentration (Kd, k2); type: binding; parameters: key to Rate enhancement, Cdk2 F80C: Cdk2 rate constant divided by model-thiol rate constant; conditions: additional mutation C177A; for Rate constant with Cdk2 F80C: Protein: Cdk2, cysteine position F80C, in h^-1
T3 construct: poly-histidine; made in house; host or cells: E. coli
Summary of the method: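 His-tagged Cdk2(C177A/F80C) from E. coli or model thiol, 5 μM in degassed phosphate buffer pH 8 with TCEP beads, reacted with acrylamide ligands; fluorescence (ex/em 380/470 nm) normalized to DMSO control and fitted to first-order decay for kobs. Kd and k2 obtained from hyperbolic fit of kobs versus ligand concentration.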

Cdk2(H71C) (C177A) = target: T4, Cdk2(H71C) (C177A) (Homo sapiens, UniProt P24941, C177A/H71C); experiment: Kinetic thiol consumption assay with Cdk2 mutant H71C; type: binding; parameters: key to Rate enhancement, Cdk2 H71C: rate constant with Cdk2 ÷ rate constant with model thiol (fold); conditions: additional mutation C177A; for Rate constant with Cdk2 H71C: Protein: Cdk2, cysteine position H71C, in h^-1
T4 construct: poly-histidine; made in house; host or cells: E. coli
Summary of the method: (§1)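 5 μM thiol, degassed phosphate pH 8, 2% v/v immobilized TCEP beads; 1 h RT; fluorescence ex 380/em 470 nm; normalized vs DMSO/thiol-only; first-order exponential decay fit → rate constant; Cdk2 k / model-thiol k = rate enhancement per acrylamide.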

Cdk2(S276C) (C177A) = target: T5, Cdk2(S276C) (C177A) (Homo sapiens, UniProt P24941, C177A/S276C); experiment: Kinetic thiol consumption assay with Cdk2 mutant S276C; type: binding; parameters: key to Rate enhancement, Cdk2 S276C: rate constant with Cdk2 ÷ rate constant with model thiol (fold); conditions: additional mutation C177A; for Rate constant with Cdk2 S276C: Protein: Cdk2, cysteine position S276C, in h^-1
T5 construct: poly-histidine; made in house; host or cells: E. coli
Summary of the method: as §1

Cdk2(N272C) (C177A) = target: T6, Cdk2(N272C) (C177A) (Homo sapiens, UniProt P24941, C177A/N272C); experiment: Kinetic thiol consumption assay with Cdk2 mutant N272C; type: binding; parameters: key to Rate enhancement, Cdk2 N272: rate constant with Cdk2 ÷ rate constant with model thiol (fold); conditions: for Rate enhancement, Cdk2 N272: Cdk2 N272, additional mutation C177A; for Rate constant with Cdk2 N272C: Protein: Cdk2, cysteine position N272C, additional mutation C177A, in h^-1
T6 construct: poly-histidine; made in house; host or cells: E. coli
Summary of the method: as §1

Cdk2(T182C) (C177A) = target: T7, Cdk2(T182C) (C177A) (Homo sapiens, UniProt P24941, C177A/T182C); experiment: Kinetic thiol consumption assay with Cdk2 mutant T182C; type: binding; parameters: key to Rate enhancement, Cdk2 T182C: rate constant with Cdk2 ÷ rate constant with model thiol (fold); conditions: additional mutation C177A; for Rate constant with Cdk2 T182C: Protein: Cdk2, cysteine position T182C, in h^-1
T7 construct: poly-histidine; made in house; host or cells: E. coli
Summary of the method: as §1

Cdk2(R122C) (C177A) = target: T8, Cdk2(R122C) (C177A) (Homo sapiens, UniProt P24941, C177A/R122C); experiment: Kinetic thiol consumption assay with Cdk2 mutant R122C; type: binding; parameters: key to Rate enhancement, Cdk2 R122C: rate constant with Cdk2 ÷ rate constant with model thiol (fold); conditions: additional mutation C177A; for Rate constant with Cdk2 R122C: Protein: Cdk2, cysteine position R122C, in h-1
T8 construct: poly-histidine; made in house; host or cells: E. coli
Summary of the method: as §1

Cdk2(S181C) (C177A) = target: T9, Cdk2(S181C) (C177A) (Homo sapiens, UniProt P24941, C177A/S181C); experiment: Kinetic thiol consumption assay with Cdk2 mutant S181C; type: binding; parameters: key to Rate enhancement, Cdk2 S181C: rate constant with Cdk2 ÷ rate constant with model thiol (fold); conditions: additional mutation C177A; for Rate constant with Cdk2 S181C: Protein: Cdk2, cysteine position S181C, in h^-1
T9 construct: poly-histidine; made in house; host or cells: E. coli
Summary of the method: as §1

Row | SMILES | Rate constant with glutathione (k(GSH)) [1] | Rate constant with Glutathione [1] | Rate constant with Cdk2 (k(Cdk2)) [2] | Rate enhancement, Cdk2 WT [2] | Rate constant with Cdk2 WT [2] | k(Cdk2)/k(Cdk2_mut) rate enhancement [2] | k(Cdk2)/k(GSH) rate enhancement [2] | Rate constant with Cdk2[C177A, F80C, K278C] (k(Cdk2_mut)) (Cdk2[C177A, F80C, K278C]) | Rate enhancement, Cdk2 F80C (Cdk2(C177A, F80C)) | Rate constant with Cdk2 F80C (Cdk2(C177A, F80C)) | Rate enhancement, Cdk2 H71C (Cdk2(H71C) (C177A)) | Rate enhancement, Cdk2 S276C (Cdk2(S276C) (C177A)) | Rate constant with Cdk2 S276C (Cdk2(S276C) (C177A)) | Rate enhancement, Cdk2 N272 (Cdk2(N272C) (C177A)) | Rate constant with Cdk2 N272C (Cdk2(N272C) (C177A)) | Rate enhancement, Cdk2 T182C (Cdk2(T182C) (C177A)) | Rate constant with Cdk2 T182C (Cdk2(T182C) (C177A)) | Rate enhancement, Cdk2 R122C (Cdk2(R122C) (C177A)) | Rate constant with Cdk2 R122C (Cdk2(R122C) (C177A)) | Rate enhancement, Cdk2 S181C (Cdk2(S181C) (C177A)) | further results
1 | C=CC(=O)N1CCCN(Cc2noc(C3CC3)n2)CC1 [CA-079] | 0.00593 | 0.009223 | 0.00553 | 1.018 | 0.00939 | 2.634 | 0.9328 | 0.0021 | 0.1408 | 0.001299 | 0.2998 | 0.6649 | 0.006132 | 0.4916 | 0.004534 | 0.8366 | 0.007716 | 0.4828 | 0.004453 | 4.96 | Rate constant with Cdk2 H71C (Cdk2(H71C) (C177A)): 0.002765; Rate constant with Cdk2 S181C (Cdk2(S181C) (C177A)): 0.04575
2 | C=CC(=O)N1CCCC2(CCCc3ccccc32)C1 (stereo not drawn) [CA-084] | 0.01002 | 0.01681 | 0.00872 | 0.5186 | 0.008718 | 1.989 | 0.8701 | 0.00438 | 1.811 | 0.03044 | 0.8209 | 1.079 | 0.01813 | 0.06817 | 0.001146 | 3.848 | 0.06469 | 0.2694 | 0.004528 | 0.4258 | Rate constant with Cdk2 H71C (Cdk2(H71C) (C177A)): 0.0138; Rate constant with Cdk2 S181C (Cdk2(S181C) (C177A)): 0.007158
3 | C=CC(=O)N1CCC(NC(=O)C2CCC2)C1 (stereo not drawn) [CA-088] | 0.01352 | 0.01947 | 0.00595 | 0.3054 | 0.005947 | 3.366 | 0.4399 | 0.00177 | 0.1205 | 0.002347 | 0 | 0.4395 | 0.008557 | 0.5609 | 0.01092 | 0.9096 | 0.01771 | 0.4684 | 0.009119 | 0.1904 | Rate constant with Cdk2 S181C (Cdk2(S181C) (C177A)): 0.003708
4 | C=CC(=O)N1CC(CCN2CCCC2=O)c2ccccc21 (stereo not drawn) [CA-089] | 0.04608 | 0.04691 | 0.2034 | 4.336 | 0.2034 | 9.903 | 4.414 | 0.02054 | 1.909 | 0.08953 | 3.475 | 3.061 | 0.1436 | 4.344 | 0.2038 | 16.71 | 0.784 | 0.4622 | 0.02168 | 0.5754 | hit classification, Example 2 [2]: hits; Rate constant with Cdk2 H71C (Cdk2(H71C) (C177A)): 0.163; Rate constant with Cdk2 S181C (Cdk2(S181C) (C177A)): 0.02699
5 | C=CC(=O)N1CCn2c(Cc3ccccc3)nnc2C1 [CA-092] | 0.0817 | 0.08356 | 0.2634 | 3.152 | 0.2634 | 21.31 | 3.224 | 0.01236 | 0.1058 | 0.008842 | 2.689 | 6.528 | 0.5455 | 7.163 | 0.5985 | 6.483 | 0.5417 | 2.269 | 0.1896 | 0.9146 | hit classification, Example 2 [2]: hits; Rate constant with Cdk2 H71C (Cdk2(H71C) (C177A)): 0.2247; Rate constant with Cdk2 S181C (Cdk2(S181C) (C177A)): 0.07642
